In data set [1] the test system is MCF-7 cells. The experiment in a line: Scratch assay (cell migration). It counts as cell-based, human. The note with it: 24 h.
Experimental: To assess the effects of the tested compounds on cell migration, the scratch assay method was applied [34]. Cells were seeded in 24-well plates at 2 × 10^5 cells per well in 1 mL medium and incubated overnight. Afterwards, they were left in an incubator at 37 °C for 24 h to attach to the wells. The next day, scratches were made using a 200 µL pipette tip in confluent monolayers. […] Images were obtained by utilizing a Nikon ECLIPSE Ti microscope (Nikon, Tokyo, Japan) after 0, 24, and 48 h. The area of the scratches was measured manually via ImageJ software version 1.54k (Bethesda, MD, USA).
The MCF-7 breast cancer cells were treated for 24 h with the tested compounds in concentrations of 5, 2.5, and 1 µM and doxorubicin hydrochloride in concentrations of 1 and 0.5 µM.
In data set [2] the test system is MCF-7 cells. Kind of data set: ROS generation, H2DCFDA/DAPI double staining. It counts as cell-based, human. The procedure:
MCF-7 cells were seeded in 6-well plates at 1 × 10^5 cells per well in 2 mL medium. Afterwards, cells were treated with the mentioned compounds for 1 and 3 h, respectively. Next, cells were washed, and 20 µM of H2DCFDA was added for 30 min. After that, 10 µg/mL of DAPI was added to observe the nuclear DNA of cells. The results were obtained with the use of a Nikon ECLIPSE Ti fluorescence microscope (Nikon, Tokyo, Japan), followed by further assessment via ImageJ software version 1.54k (Bethesda, MD, USA).
H2DCFDA (green fluorescence) was utilized to mark oxidative stress, and DAPI (blue fluorescence) to stain nuclear genetic material.

Data set [3] has as its system panel of 60 cancer cell lines. It counts as cell-based. The note with it: for Mean Growth, % / Range of Growth, % / Positive Cytostatic Effect / Positive Cytotoxic Effect: 10 μM; for Mean Growth, % / Range of Growth, %: one dose; for Positive Cytostatic Effect: number of cell lines with GP from 0 to 50 / total number of cell lines; for Positive Cytotoxic Effect: number of cell lines with GP of <0 / total number of cell lines; for LC50: read-out: MG_MID_60 LC50.

Data set [4] has as its system HL-60(TB). It counts as cell-based.
The subject of data set [5] is NCI-H460. It counts as cell-based. The note with it: for Growth %: NCI-H460, 10 μM, one dose, 48 h.
Data set [6] has as its system HT29. It counts as cell-based.
The subject of data set [7] is SF-295. It counts as cell-based. The note with it: for Growth %: SF-295, 10 μM, one dose, 48 h.
The subject of data set [8] is MDA-MB-435. It counts as cell-based. The note with it: for Growth %: MDA-MB-435, 10 μM, one dose, 48 h.
The test system of data set [9] is SK-MEL-5. It counts as cell-based.
The test system of data set [10] is UACC-62. It counts as cell-based.
Data set [11] deals with caspase 9. The experiment in a line: FLICA caspase-9 activity, flow cytometry. It counts as cell-based, human. The note with it: 5 µM, 24 h, MCF-7. The procedure: (§1) To determine the effects of the novel compounds on the caspases-3/7, caspase-8, caspase-9, and caspase-10 activity, the FLICA Caspase-3/7 Assay Kit, FLICA Caspase-8 Assay Kit, FLICA Caspase-9 Assay Kit, and FLICA Caspase-10 Assay Kit were applied (ImmunoChemistry Technologies, Bloomington, MN, USA). MCF-7 cells were seeded on 6-well plates (1 × 10^5 cells per well) and incubated for 24 h. Afterwards, they were treated for 24 h with tested compounds (Les-6416, Les-6418, Les-6381, Les-6423, and Les-6424) in a concentration of 5 µM and the reference drug doxorubicin hydrochloride in a concentration of 0.5 µM. Next, cells were amassed and washed two times with cold PBS, followed by resuspension in an Apoptosis Wash Buffer to a final concentration of 5 × 10^5 cells/mL. Afterwards, 290 µL of the prepared cell suspensions were transferred into tubes, followed by the addition of 10 µL of FLICA solution, prepared immediately before use, to each sample and incubated for an hour at 37 °C. Next, cells were washed two times with 2 mL of Apoptosis Wash Buffer, provided in the kit, centrifuged, and resuspended in 300 µL of the buffer. Prepared samples were assessed by a BD FACSCanto II flow cytometer (Becton Dickinson Biosciences, San Jose, CA, USA). For each sample, 1 × 10^4 events were analyzed. […]

Data set [12] deals with caspase 10. Kind of data set: FLICA caspase-10 activity, flow cytometry. The note with it: 5 µM, 24 h, MCF-7. It counts as cell-based, human. The procedure: as §1
A general note: Flow cytometry measures light scatter and fluorescence of single cells or particles in a stream.

Data set [13] has as its system CCRF-CEM. It counts as cell-based.
Data set [14] deals with MOLT-4. It counts as cell-based.
Data set [15] relates to COLO 205. It counts as cell-based.
In data set [16] the test system is SN12C. It counts as cell-based.
Data set [17] deals with PC-3. It counts as cell-based.
For data set [18], the system named is BT-549. It counts as cell-based.
The mark [19] stands for this setting: Homo sapiens, 48 h, read-out: LC50 (the source's name).

The record followed here is publication PMC12190436, “5-Ene-2-arylaminothiazol-4(5H)-ones Induce Apoptosis in Breast Cancer Cells” (Cells, 2025).

What is called LC50 is the concentration that kills 50% of the test population. In general, TGI refers to the concentration giving total growth inhibition.

Counter-ions that a name gives are not always drawn. Like-named read-outs stand apart in the source and are kept apart here.

For the compound `COc1cccc2c1C(=O)c1c(O)c3c(c(O)c1C2=O)C[C@@](O)(C(=O)CO)C[C@@H]3O[C@H]1C[C@H](N)[C@H](O)[C@H](C)O1` [DOX, Doxorubicin hydrochloride, reference compound], in data set [1] (0.5 µM), the “Closure of the gap area” value is 25.50 ± 20.51%. Also, the “ROS generation versus control” value in data set [2] (0.5 µM, 3 h) is recorded as “approximately two times more than the untreated control”.
In the case of `COc1cc(NC2=NC(=O)C(=Cc3ccc4cc[nH]c4c3)S2)cc(OC)c1OC` [Les-6416, 5-((1H-Indol-6-yl)methylene)-2-((3,4,5-trimethoxyphenyl)amino)thiazol-4(5H)-one], the “Mean Growth, %” value in [3] (48 h) is 39.56%. For the same compound, the “Range of Growth, %” value in data set [3] (48 h) is recorded as −33.26–97.05%. Also, the “Positive Cytostatic Effect” value in [3] is reported as 38/58. Moreover, the “Positive Cytotoxic Effect” value in data set [3] is 2/58. Also, the Growth % in data set [4] (HL60(TB), 10 μM, one dose, 48 h) was 15.10%; in data set [5], 17.93%; in data set [6] (HT29, 10 μM, one dose, 48 h), 7.66%; in [7], 5.01%; in data set [8] it was −33.26%; in [9] (SK-Mel-5, 10 μM, one dose, 48 h) it was −4.74%. The Growth % in [10] (UACC-62, 10 μM, one dose, 48 h) is given as 18.03%. For the same compound, the “Closure of the gap area” value in data set [1] (1 µM) was 21.00 ± 7.07%. Besides, in data set [11], the “cells with active caspase 9” value amounted to 41.90 ± 6.89%. For the same compound, the “cells with active caspase 10” value in data set [12] is on record as 43.23 ± 2.85%. Moreover, the “ROS generation versus control” value in [2] (2.5 µM, 3 h) is reported as “approximately two times more than the untreated control”; in [2] (5 µM, 1 h) it was “two times more than the control”; in [2] (5 µM, 3 h), “approximately a threefold increase”.
As for `COc1cc(NC2=NC(=O)C(=Cc3c[nH]c4ccccc34)S2)cc(OC)c1OC` [Les-6418, 5-((1H-Indol-3-yl)methylene)-2-((3,4,5-trimethoxyphenyl)amino)thiazol-4(5H)-one], the “Mean Growth, %” value in data set [3] (48 h) is −43.64%. Moreover, the “Range of Growth, %” value in data set [3] (48 h) is −88.00–14.92%. Besides, the “Positive Cytostatic Effect” value in [3] is recorded as 7/59. Moreover, in data set [3], the “Positive Cytotoxic Effect” value is 52/59. Also, the LC50 worked out at 56.6 µM in [3] (Homo sapiens, 48 h, full panel mean, 48 h); 56.5 µM in data set [3] (full panel mean, 48 h); 14.2 µM in [8] (Homo sapiens, MDA-MB-435, 48 h). Further, the GI50 is 0.28 to 0.98 µM in data set [3] (Homo sapiens, CCRF-CEM, HL-60(TB), SR, NCI-H522, HT29, KM12, MDA-MB-435, OVCAR-3, ACHN, BT-549, MDA-MB-468, read-out: GI50, submicromolar concentration range); 3.27 µM in [3] (Homo sapiens, full panel mean, 48 h, read-out: MG_MID_60 GI50); 2.09 µM in data set [13] (Homo sapiens, 48 h); 0.855 µM in [4] (Homo sapiens, HL-60(TB), 48 h); 2.63 µM in data set [14] (Homo sapiens, MOLT-4, 48 h); 2.1 µM in data set [5] (Homo sapiens, NCI-H460, 48 h). Besides, the GI50 was 3.14 µM in data set [15] (Homo sapiens, COLO 205, 48 h); 0.923 µM in [6] (Homo sapiens, HT-29, HT29, 48 h); 2.27 µM in data set [7] (Homo sapiens, SF-295, 48 h); 0.28 µM in data set [8] (Homo sapiens, MDA-MB-435, 48 h); 2.46 µM in [9] (Homo sapiens, SK-MEL-5, 48 h); 4.75 µM in data set [10] (Homo sapiens, UACC-62, 48 h). The GI50 in data set [16] (Homo sapiens, 48 h) was 3.85 µM; in [17] (Homo sapiens, PC-3, 48 h), 2.59 µM; in data set [18] (Homo sapiens, BT-549, 48 h), 0.81 µM. The “MG_MID_60 TGI” value in data set [3] (full panel mean, 48 h) was determined as 18.6 µM. Besides, in data set [3] (subpanel selectivity indices at studied dose–response parameters), the “SI against certain types of cancer” value is recorded as 0.71–1.60. In addition, the TGI in data set [13] (48 h) was greater than 100 µM; in data set [4] (HL-60(TB), 48 h), 11.1 µM; in data set [14] (MOLT-4, 48 h), 26.0 µM; in [5] (NCI-H460, 48 h), 14.3 µM; in [15] (COLO 205, 48 h), 16.4 µM; in data set [6] (HT29, 48 h), 10.1 µM. Moreover, the TGI in data set [7] (SF-295, 48 h) is 13.4 µM; in data set [8] (MDA-MB-435, 48 h), 0.940 µM; in [9] (SK-MEL-5, 48 h), 14.1 µM; in data set [10] (UACC-62, 48 h), 19.7 µM; in data set [16] (48 h) it was 15.1 µM; in data set [17] (PC-3, 48 h), 22.6 µM. For the same compound, the TGI in data set [18] (BT-549, 48 h) amounted to 10.7 µM. The CC50 in data set [13] (setting [19]) is greater than 100 µM; in data set [4] (Homo sapiens, HL-60(TB), 48 h, read-out: LC50 (the source's name)), greater than 100 µM; in data set [14] (Homo sapiens, MOLT-4, 48 h, read-out: LC50 (the source's name)), greater than 100 µM; in data set [15] (Homo sapiens, COLO 205, 48 h, read-out: LC50 (the source's name)), 49.6 µM; in [6] (Homo sapiens, HT-29, HT29, 48 h, read-out: LC50 (the source's name)) it was 47.6 µM; in data set [7] (Homo sapiens, SF-295, 48 h, read-out: LC50 (the source's name)), 40.9 µM. The CC50 came out at 39.1 µM in [9] (Homo sapiens, SK-MEL-5, 48 h, read-out: LC50 (the source's name)); 48.3 µM in data set [10] (Homo sapiens, UACC-62, 48 h, read-out: LC50 (the source's name)); 43.6 µM in data set [16] (setting [19]); 94.2 µM in [17] (Homo sapiens, PC-3, 48 h, read-out: LC50 (the source's name)); 39.2 µM in data set [18] (Homo sapiens, BT-549, 48 h, read-out: LC50 (the source's name)). Moreover, the “SI (TGI)” value in [13] (MG_MID_60/value) was 0.19; in [4] (HL-60(TB), MG_MID_60/value) it was 1.68; in [14] (MOLT-4, MG_MID_60/value) it was 0.72; in data set [5] (NCI-H460, MG_MID_60/value), 1.30; in [15] (COLO 205, MG_MID_60/value), 1.13; in [6] (HT29, MG_MID_60/value), 1.84. Further, the “SI (TGI)” value in data set [7] (SF-295, MG_MID_60/value) is 1.39; in data set [8] (MDA-MB-435, MG_MID_60/value), 19.8; in [9] (SK-MEL-5, MG_MID_60/value), 1.32; in data set [10] (UACC-62, MG_MID_60/value), 0.94; in data set [16] (MG_MID_60/value), 1.23; in data set [17] (PC-3, MG_MID_60/value), 0.82. In data set [18] (BT-549, MG_MID_60/value), the “SI (TGI)” value worked out at 1.74. The “SI (GI50)” value in data set [14] (MOLT-4, MG_MID_60/value) stood at 1.24. The same compound gave an LC50 (50% lethal concentration) in [5] (Homo sapiens, NCI-H460, 48 h) of 92 µM. Moreover, the Growth % in data set [5] was −77.59%; in data set [7] it was −73.38%; in [8] it was −77.11%; in [16] (10 μM, one dose, 48 h) it was −88.00%.
As to `COc1cc(NC2=NC(=O)C(=Cc3cccs3)S2)cc(OC)c1OC` [Les-6423, 5-(Thiophen-2-ylmethylene)-2-((3,4,5-trimethoxyphenyl)amino)thiazol-4(5H)-one], the “cells with active caspase 9” value in [11] is “did not show any effect”. In addition, the “cells with active caspase 10” value in [12] was “did not show any effect”.
